Each compound was assayed against T1, His6-HGFR (HGFR cytoplasmic domain) (Homo sapiens, UniProt P08581) (assay: Inhibitory activity against HGFR tyrosine kinase activity (HTRF)). Settings: biotin-poly(GT), ATP, 30° C. 10 min.
T1 construct: made in house; host or cells: Sf9 insect cells (Spodoptera frugiperda), baculovirus, pFastBac-HT vector
Format: biochemical
Excerpt: The cytoplasmic domain of HGFR (Genbank Accession No. J02958) is a 1.3 kb DNA fragment beginning with Lys974 and including a stop codon, and described by Park et al. (Proc. Natl. Acad. Sci. U.S.A. 84(18), 6379-6383, 1987). The DNA fragment was isolated from the human placental cDNA library (purchased from Clontech) by PCR (TaKaRa Ex Taq™ Kit, purchased from TaKaRa) using two kinds of primers (SEQ ID NO: 1,5′-[…]-3′ and SEQ ID NO: 2,5′-[…]-3′, purchased from Invitrogen). The DNA fragment was cloned into a baculovirus transplace vector (pFastBac™-HT (purchased from GIBCO BRL)) to produce a recombinant construct. […] EGFR was purchased from Sigma (Production No. E-2645).
To the suspension of Sf9 cells (3×10^8 cells) in SF-900II medium (purchased from Invitrogen) containing 2% FBS was added a solution of HGFR transfected baculovirus above (4 ml), followed by a shaking culture at 27° C. for 48 hrs. The cells infected with the HGFR transfected baculovirus were centrifuged at 1,000 rpm, 4° C. for 5 min to remove the supernatant. The precipitated infected cells were suspended in 80 ml of ice-cold PBS, and centrifuged at 1,000 rpm, 4° C. for 5 min to remove the supernatant. The precipitated infected cells were suspended in 40 ml of ice-cold Lysis Buffer (50 mM Tris-HCl (pH 8.5), 5 mM 2-mercaptoethanol, 100 mM KCl, 1 mM PMSF and 1% (v/v) NP-40). The suspension was centrifuged at 12,000 rpm, 4° C. for 30 min to provide a supernatant.
The supernatant was loaded onto an Ni-NTA agarose column (3 ml, purchased from Qiagen) equilibrated with 30 ml of Buffer A (20 mM Tris-HCl (pH 8.5), 5 mM 2-mercaptoethanol, 500 mM KCl, 20 mM imidazole and 10% (v/v) glycerol). The column was washed with 30 ml of Buffer A, 6 ml of Buffer B (20 mM Tris-HCl (pH 8.5), 5 mM 2-mercaptoethanol, 1 M KCl, and 10% (v/v) glycerol) and 6 ml of Buffer A in this order. Then, the column was eluted with 6 ml of Buffer C (20 mM Tris-HCl (pH 8.5), 5 mM 2-mercaptoethanol, 100 mM KCl, 100 mM imidazole, and 10% (v/v) glycerol) to provide a fraction. The fraction was entrapped in a dialysis membrane (purchased from Spectrum Laboratories), dialyzed at 4° C. overnight with 1 L of dialysis buffer (20 mM Tris-HCl (pH 7.5), 10% (v/v) glycerol, 1 mM dithiothreitol, 0.1 mM Na3VO4 and 0.1 mM EGTA), and stored at −80° C. until used. […] The VEGFR2 cytoplasmic domain, the FGFR1 cytoplasmic domain, and the PDGFRβ cytoplasmic domain were fused with six histidine at the N terminus by the similar method to produce respective recombinant proteins (His6-VEGFR2, His6-FGFR1, and His6-PDGFRβ).
To each well of a 96-well round plate (purchased from NUNC, Production No. 163320) were added 10 μl of a solution for kinase reaction (200 mM Hepes (pH 7.4), 80 mM MgCl2, 16 mM MnCl2 and 2 mM Na3VO4), 250 ng of biotinylated poly(Glu4: Tyr1) (biotin-poly(GT), purchased from Japan Schering) (6 μl, 15-fold diluted with distilled water), 30 ng of His6-HGFR (10 μl, 60-fold diluted with 0.4% BSA) and a test substance dissolved in dimethylsulfoxide (4 μl, 100-fold diluted with 0.1% BSA) to mess up to 30 μl. To the well was added 10 μl of 4 μM ATP (purchased from Sigma) diluted with distilled water to incubate at 30° C. for 10 min, followed by adding 10 μl of 500 mM EDTA (pH 8.0) (purchased from Wako Pure Chemicals) to provide a kinase reaction solution.
The tyrosine-phosphorylated biotin-poly(GT) was detected using the Homogenous Time-Resolved Fluorescence (HTRF) method (Analytical Biochemistry, 269, 94-104, 1999).

T1 sequence (P08581 956-1390 limits assumed): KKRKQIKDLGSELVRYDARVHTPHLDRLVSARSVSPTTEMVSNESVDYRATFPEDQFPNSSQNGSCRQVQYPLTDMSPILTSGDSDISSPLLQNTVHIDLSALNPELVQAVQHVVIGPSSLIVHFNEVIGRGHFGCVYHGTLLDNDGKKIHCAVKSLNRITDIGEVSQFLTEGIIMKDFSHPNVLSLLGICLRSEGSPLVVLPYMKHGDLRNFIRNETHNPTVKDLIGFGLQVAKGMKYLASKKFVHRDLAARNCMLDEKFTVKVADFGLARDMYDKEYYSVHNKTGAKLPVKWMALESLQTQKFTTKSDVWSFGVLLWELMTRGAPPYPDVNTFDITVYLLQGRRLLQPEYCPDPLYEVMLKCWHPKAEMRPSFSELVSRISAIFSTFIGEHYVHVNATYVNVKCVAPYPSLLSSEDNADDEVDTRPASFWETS

Row | IC50 [nM] | Structure (SMILES)
1 | 48 | CN(C)CC1CCN(C(=O)Nc2cc(Oc3ccc(NC(=O)C4(C(=O)Nc5ccc(F)cc5)CC4)c(F)c3)ccn2)CC1 [Example 8, N-[4-({2-[({4-[(Dimethylamino)methyl]piperidin-1-yl}carbonyl)amino]pyridin-4-yl}oxy)-2-fluorophenyl]-N′-(4-fluorophenyl)cyclopropane-1,1-dicarboxamide]
2 | 53 | O=C(Nc1cc(Oc2ccc(NC(=O)C3(C(=O)Nc4ccc(F)cc4)CC3)c(F)c2)ccn1)N1CCC(N2CCC2)CC1 [Example 9, N-{4-[(2-{[(4-Azetidin-1-ylpiperidin-1-yl)carbonyl]amino}pyridin-4-yl)oxy]-2-fluorophenyl}-N′-(4-fluorophenyl)cyclopropane-1,1-dicarboxamide]
3 | 54 | O=C(Nc1cc(Oc2ccc(NC(=O)C3(C(=O)Nc4ccc(F)cc4)CC3)cc2F)ccn1)N1CCC(N2CCCC2)CC1 [Example 10, N-(4-Fluorophenyl)-N′-{3-fluoro-4-[(2-{[(4-pyrrolidin-1-ylpiperidin-1-yl)carbonyl]amino}pyridin-4-yl)oxy]phenyl}cyclopropane-1,1-dicarboxamide]
4 | 46 | O=C(Nc1cc(Oc2ccc(NC(=O)C3(C(=O)Nc4ccc(F)cc4)CC3)cc2F)ccn1)N1CCC(N2CCC2)CC1 [Example 11, N-{4-[(2-{[(4-Azetidin-1-ylpiperidin-1-yl)carbonyl]amino}pyridin-4-yl)oxy]-3-fluorophenyl}-N′-(4-fluorophenyl)cyclopropane-1,1-dicarboxamide]
5 | 37 | CN1CCC(N(C)C(=O)Nc2cc(Oc3ccc(NC(=O)C4(C(=O)Nc5ccc(F)cc5)CC4)cc3)ccn2)CC1 [Example 12]
6 | 55 | O=C(Nc1cc(Oc2ccc(NC(=O)C3(C(=O)Nc4ccc(F)cc4)CC3)cc2)ccn1)N1CCC(N2CCC2)CC1 [Example 13, N-{4-[(2-{[(4-Azetidin-1-ylpiperidin-1-yl)carbonyl]amino}pyridin-4-yl)oxy]phenyl}-N′-(4-fluorophenyl)cyclopropane-1,1-dicarboxamide]

The next lines start with the compound.

Row | Structure (SMILES) | IC50 [nM]
7 | CN1CCC(N(C)C(=O)Nc2cc(Oc3ccc(NC(=O)C4(C(=O)Nc5ccc(F)cc5)CC4)cc3F)ccn2)CC1 [Example 1, N-(3-Fluoro-4-{[2-({[methyl(1-methylpiperidin-4-yl)amino]carbonyl}amino)pyridin-4-yl]oxy}phenyl)-N′-(4-fluorophenyl)cyclopropane-1.1-dicarboxamide] | 66
8 | CN(C)CCN1CCN(C(=O)Nc2cc(Oc3ccc(NC(=O)C4(C(=O)Nc5ccc(F)cc5)CC4)c(F)c3)ccn2)CC1 [Example 2, N-[4-({2-[({4-[2-(Dimethylamino)ethyl]piperazin-1-yl}carbonyl)amino]pyridin-4-yl}oxy)-2-fluorophenyl]-N′-(4-fluorophenyl)cyclopropane-1,1-dicarboxamide] | 55
9 | CN1CCC(N(C)C(=O)Nc2cc(Oc3ccc(NC(=O)C4(C(=O)Nc5ccc(F)cc5)CC4)c(F)c3)ccn2)CC1 [Example 3, N-(2-Fluoro-4-{[2-({[methyl(1-methylpiperidin-4-yl)amino]carbonyl}amino)pyridin-4-yl]oxy}phenyl)-N′-(4-fluorophenyl)cyclopropane-1,1-dicarboxamide] | 39
10 | O=C(Nc1cc(Oc2ccc(NC(=O)C3(C(=O)Nc4ccc(F)cc4)CC3)c(F)c2)ccn1)N1CCC(N2CCCC2)CC1 [Example 4, N-(4-Fluorophenyl)-N′-{2-fluoro-4-[(2-{[(4-pyrrolidin-1-ylpiperidin-1-yl)carbonyl]amino}pyridin-4-yl)oxy]phenyl}cyclopropane-1,1-dicarboxamide] | 45
11 | CN(C)CCN1CCN(C(=O)Nc2cc(Oc3ccc(NC(=O)C4(C(=O)Nc5ccc(F)cc5)CC4)cc3F)ccn2)CC1 [Example 7, N-[4-({2-[({4-[2-(Dimethylamino)ethyl]piperazin-1-yl}carbonyl)amino]pyridin-4-yl}oxy)-3-fluorophenyl]-N′-(4-fluorophenyl)cyclopropane-1,1-dicarboxamide] | 51
